According to patent US11559527B2 (priority 2017, dated 2023):

Key:
[1] = PrestoBlue viability assay; format: cell-based, Human; settings: human, MCF7 breast cancer cells, read-out: reduction of MCF7 cell viability
Experimental: (§1) The inventors sought to evaluate whether mDIVI-1-induced inhibition of DRP1 has repercussion on the viability of MCF7 cells. […] Similar results were obtained using the Bradford assay, which measures protein content, as an indicator of cell viability.
(§2) CELL CULTURE: Human MCF7 breast cancer cells were purchased from ATCC and maintained in complete media: DMEM (D6546, Sigma) supplemented with 10% fetal bovine serum (F7524, Sigma), 100 units/ml of penicillin, 100 μg/ml, streptomycin (P0781, Sigma) and 1% Glutamax (#35050087, Life Technologies). For all experiments, cells were incubated in a 5% CO2 atmosphere at 37° C.
(§3) PRESTOBLUE VIABILITY ASSAY: Cell viability was measured using the resazurin-based PrestoBlue reagent (A-13261, ThermoFisher Scientific). Briefly, 5×10^3 MCF7 cells were seeded into 96-well black plates. When cells were attached mDIVI-1 or vehicle were added to the cells. After 2 or 5 days, PrestoBlue reagent was added to the cells and incubated for 2 hours. Plates were finally read using a FluoStar Omega plate reader (BMG Labtech) at an excitation wavelength of 544 and an emission wavelength of 590 nm. Background measurements were subtracted from all values.

MCF7 cells [2] = assay: PrestoBlue viability assay; format: cell-based, Human; settings: 10 μM, 48 hours
Experimental: as §1, §2, §3

MCF7 cells [3] = assay: Mitochondrial mass quantification by flow cytometry (MitoTracker Deep Red); format: cell-based, Human; settings: 50 μM, 5 days, relative to vehicle
Description: In order to assess whether the inhibition of DRP1 was actually being translated into a reduction in mitochondrial fission, the inventors stained the mitochondria of MCF7 cells with Mitotracker Deep Red, which is a marker of mitochondrial mass. […] The original images are black background with shades of red over the cells, whereas the images in FIG. 3 have been color-inverted and generated in grey scale. Mitochondrial mass was also quantified by flow cytometry. FIGS. 4A-4C show results of mitochondrial mass quantification. In FIG. 4A, Mitotracker Deep Red mean intensity relative to vehicle intensity is shown for 2-day and 5-day treatments.
MITOCHONDRIAL MASS QUANTIFICATION: To measure mitochondrial mass, cells were stained with MitoTracker Deep Red (M22426, Invitrogen). Briefly, 2×10^5 […] cells per well were seeded in 6-well plates. […] Cells were then incubated for 15 min at 37° C. with the 10 nM Mitotracker Deep Red probe diluted in PBS (D8662, Sigma). All subsequent steps were performed in the dark. Cells were washed in PBS, harvested, and resuspended in PBS. Mitotracker signal was quantified as mean fluorescent intensity of the viable cell population in a Fortessa flow cytometer (BD Bioscience). Results were analyzed using FlowJo software.

MCF7 cells [4] = assay: DAPI staining (viable cells in suspension; binucleated cells); format: cell-based, Human
Experimental: The second chart in FIG. 10B sets forth the results. […] One possible explanation to that observed behavior is that they are becoming more quiescent. […] Such phenomenon is typical of anti-mitotic drugs.
The surviving fraction after 2 days and 5 days of growth was analyzed by FACS. MCF7 cells were either trypsinised or spun down and trypsinised and incubated with CD24 (IOTest CD24-PE, Beckman Coulter) and CD44 (APC mouse anti-human CD44, 559942, BD Pharmingen) for 15 minutes on ice. Cells were then rinsed twice in PBS, spun down, and resuspended with DAPI dye (D1306, Molecular probes) at 3 μM in PBS for 10 minutes. Samples were then analyzed by FACS (Fortessa, BD Bioscence). Only the live cell population, identified using the DAPI staining, was analyzed for CD24/CD44 expression. Data were analyzed using FlowJo software.

MCF7 cells [5] = assay: Mitochondrial superoxide (MitoSOX, flow cytometry); format: cell-based, Human; settings: both concentrations of mDIVI-1, compared to vehicle
Description: Inhibition of the mitochondrial fission impacts on other mitochondrial processes, such as mitochondrial metabolism and general and mitochondrial oxidative stress. To confirm, MCF7 cells were stained with MitoSOX and CM-H2DCFDA, and mitochondrial superoxide and total ROS were quantified by flow cytometry. […] Whereas the increase in general ROS goes in line with the increase in mitochondrial content, the boost in the levels of mitochondrial superoxide in mDIV1-treated cells is actually bigger than the observed increased mitochondrial content.
LEVELS OF REACTIVE OXYGEN SPECIES AND MITOCHONDRIAL SUPEROXIDE: For both assays, 2×10^5 MCF7 cells were seeded in 35 mm plates. […] Reactive oxygen species (ROS) production was measured using CM-H2DCFDA (C6827, Invitrogen). Briefly, cells were incubated for 20 minutes at 37° C. with 1 μM CM-H2DCFDA diluted in PBS and then placed in complete media for 20 minutes at 37° C. in the dark, to render the dye fluorescent, according to the manufacturer. Mitochondrial superoxide was measured using MitoSOX Red Mitochondrial Superoxide Indicator (M36008, ThermoFisher Scientific). […] ROS signal and MitoSOX signal was quantified as mean fluorescent intensity of the viable cell population in a Fortessa flow cytometer (BD Bioscience). Results were analysed using FlowJo software.

A375 melanoma cells = assay: Tumorsphere formation assay, A375; format: cell-based
Experimental: (§4) One of the gold standard techniques for the study and identification of CSCs is the sphere formation assay, an in vitro culture system that enriches for CSCs. Under these anchorage-independent culture conditions, CSCs preferentially form the so-called tumorspheres, whereas more differentiated cells die rapidly.
(§5) TUMORSPHERE FORMATION ASSAY: A single cell suspension was prepared using enzymatic (1× Trypsin-EDTA, T3924, Sigma Aldrich), and manual disaggregation (25 gauge needle). […] After 5 days of culture in a humidified incubator at 37° C., tumorspheres bigger than 50 μm were counted using an eye piece graticule.

A549 lung cancer cells = assay: Tumorsphere formation assay, A549; format: cell-based
Experimental: as §4, §5

COc1cc(-n2c(S)nc3ccccc3c2=O)c(Cl)cc1Cl [mDIVI-1, 3-(2,4-Dichloro-5-methoxyphenyl)-2-sulfanyl-4(3H)-quinazolinone]
cytotoxicity at 5 days, 10 μM ([1]; 10 μM, five days): 20%
cytotoxicity at 48 h, 50 μM ([1]; 50 μM, 48 hours): 20%
cytotoxicity at 5 days, 50 μM ([1]; 50 μM, five days): > 65%
cytotoxicity at 48 h, 100 μM ([1]; 100 μM, 48 hours): 20%
cytotoxicity at 5 days, 100 μM ([1]; 100 μM, five days): 85%
viability of MCF7 cells (MCF7 cells [2]): did not decrease
Mitotracker Deep Red mean fluorescence intensity (mitochondrial mass) (MCF7 cells [3]): significantly higher
binucleated cells (failure of cytokinesis) (MCF7 cells [4]; 50 μM, data not shown): increase
cell viability (DAPI) vs vehicle-treated cells (MCF7 cells [4]; anchorage-independent conditions): no significant differences
mitochondrial superoxide production (MitoSOX) (MCF7 cells [5]): significantly increased
decrease of tumorsphere forming capacity (A375 melanoma cells; A375, 10 μM): over 35%
decrease of tumorsphere forming capacity (A375 melanoma cells; A375, 50 μM): over 90%
decrease of tumorsphere forming capacity (A549 lung cancer cells; A549, 10 μM): > 15%
decrease of tumorsphere forming capacity (A549 lung cancer cells; A549, 50 μM): > 80%
